Results from US6121319A (priority 1998, dated 2000).

Tests used:
C57 black mice = test: Lipoproteins in cholesterol-fed C57 black mice, two weeks oral; format: in vivo, mouse
ICAM-1 = ICAM-1 expression in human aortic endothelial cells (TNF-induced, ELISA); format: cell-based; details: HAEC; 2.5, 5, 10 and 100 μM; 16 h; FIG. 2
Experimental: (§1) The cells were incubated for sixteen hours in cell culture media at 37 degrees Celsius in a tissue culture incubator. After sixteen hours, the cells were washed, and incubated with antibodies to ICAM-1. The amount of antibody binding to the cells was determined by a colorometric ELISA assay using a horseradish peroxidase conjugated antibody to the ICAM-1 antibody.

[1] = tested on: hypercholesterolemic monkeys; test: Serum LDL and cholesterol in hypercholesterolemic cynomolgus monkeys; format: in vivo; details: for effect on HDL: monkeys
Experimental: Cynomolgus monkeys were made hypercholesterolemic prior to AGE-3 dosing by feeding a high fat cholesterol diet. The monkeys were then dosed orally with AGE-3 (100 mg/kg/day) for two weeks. The percent serum LDL cholesterol decreased in a range from 4 to 60 percent in the monkeys over this time period. Administration of the drug was then terminated, and serum cholesterol checked on day 29.

[2] = Plasma level of MSE over days of treatment (FIG. 10); format: in vivo; details: FIG. 10, in micromolar
MCP-1 [3] = test: MCP-1 expression in human aortic endothelial cells (TNF, ELISA); format: cell-based
Source text: The cell culture media was harvested and used to quantitate the amount of MCP-1 using a color-based ELISA assay. […] MCP-1 is a chemoattractant protein that recruits monocytes to an atherosclerotic lesion.

VCAM-1 [4] = test: VCAM-1 expression in human aortic endothelial cells (TNF-induced, ELISA); format: cell-based; details: for VCAM-1 expression as a percentage of VCAM-1 expression induced by TNF alone: HAEC, 2.5, 5, 10 and 100 μM, 16 h, 37 °C, FIG. 1
Experimental: as §1, with “VCAM-1.” for “ICAM-1.”, “VCAM-1” for “ICAM-1”

rats = test: Two-week oral administration to rats (toxicity, clinical chemistry); format: in vivo, rat; details: 1000 mg/kg/day
MCP-1 [5] = test: MCP-1 gene expression in lungs of LPS-challenged mice (Northern blot); format: in vivo, mouse; details: subcutaneous time release pellets, 150 mg/kg/day
Experimental: (§2) MSE administered via subcutaneous implanted pellets (150 mg/kg/day time release pellets) blocks LPS-induced gene expression of VCAM-1 and MCP-1 in lungs in a mice model.
(§3) FIG. 4 is a Northern blot analysis of VCAM-1 and MCP-1 gene expression from RNA isolated from the lungs of LPS-challenged ApoE knockout mice. […] After one week they were challenged intraperitoneally with 1 mg/kg of LPS. After two hours the animals were sacrificed and lungs frozen for RNA isolation. The RNA was size fractionated by denaturing 1.0% agarose gel electrophoresis, transferred to a nylon membrane and hybridized with a mouse JE-specific ^32 P-labelled cDNA probe. The membrane was subsequently stripped and hybridized with a mouse VCAM-1 specific cDNA and then a chicken β-actin specific cDNA probe.

apoE-knock out mice = test: Lipoproteins in apoE-knock out mice, two weeks oral; format: in vivo, mouse; details: for effect on HDL / effect on total cholesterol and LDL: mice
bacteria = test: Bacterial Ames test
Source text: MSE is not a mutagen in the bacterial Ames test.

lipid-fed rabbits = test: Cholesterol and lipoprotein cholesterol in plasma of lipid-fed rabbits, three weeks; format: in vivo, rabbit; details: 0.5% wt/wt in high-fat chow, p<0.05, FIG. 5
Source text: Control animals were fed the same chow without drug added. Lipoprotein fractions were separated from whole plasma by […] and analyzed for cholesterol content.

[6] = Drug level in plasma of rabbits fed a high cholesterol diet for three weeks (HPLC); format: in vivo, rabbit; details: 0.5% wt/wt in high-fat chow, FIG. 6
Source text: The drugs were extracted from plasma with ether and analyzed by high pressure liquid chromatography.

VCAM-1 [7] = test: VCAM-1 expression (general statement)
aortic lesions = test: Aortic lesions in hypercholesterolemic rabbits (sudan-4 staining); format: in vivo, rabbit; details: six weeks
Experimental: (§4) Oral administration of MSE (150 mg/kg/day) for six weeks lowers total plasma, ApO-B containing and HDL cholesterol levels in a New Zealand White rabbit model.
(§5) After six weeks, lipoprotein fractions were separated from whole plasma by […], and analyzed for cholesterol and triglyceride content.
(§6) The rabbits described in Example 8 were sacrificed and aortas obtained. The aortas were stained with sudan-4 and the extent of staining analyzed. FIG. 9 is a graph of the percent aortic surface area covered by lesions in MSE treated and untreated lipid-fed rabbits.

NF-kB [8] = test: NF-kB activation in TNF-treated human aortic endothelial cells (gel shift); format: cell-based; details: HAEC, 25 micromolar, 1, 2 or 4 h
Experimental: Human aortic endothelial cells were treated with TNF alone or in combination with 25 micromolar MSE or PDTC for a period of either one hour, two hours or four hours. The cells were washed and the nuclear extracts were prepared to perform gel shift analysis using a VCAM-1 promoter probe.

VCAM-1 [9] = test: VCAM-1 gene expression in lungs of LPS-challenged mice (Northern blot); format: in vivo, mouse; details: subcutaneous time release pellets, 150 mg/kg/day
Experimental: as §2, §3

VCAM-1 [10] = test: VCAM-1 expression in aorta sections of hypercholesterolemic rabbits (immunostaining); format: in vivo, rabbit; details: six weeks; for reduction in VCAM-1 expression in aorta sections: immunostaining, approx. 150 mg/kg/day (probucol: similar experiment, same dose)
Source text: as §5, §6
(§7) Sections of the aortas were immunostained for VCAM-1 expression or macrophage accumulation using antibodies for VCAM-1 or Ram-11 antigen.

[11] = tested on: macrophage accumulation (Ram-11 antigen); test: Macrophage accumulation in aorta sections of hypercholesterolemic rabbits (Ram-11 immunostaining); format: in vivo, rabbit; details: six weeks; for reduction in macrophage accumulation in aorta sections: immunostaining (Ram-11), approx. 150 mg/kg/day (probucol: similar experiment, same dose)
Source text: as §5, §6, §7

rabbits = test: Effect on lipoproteins in rabbits (summary statement); format: in vivo, rabbit; details: for effect on HDL: rabbits (species not restated for probucol)
Source text: Statins reduce LDL and may or may not effect HDL.

[12] = tested on: New Zealand white rabbits; test: Cholesterol and lipoproteins in cholesterol-fed New Zealand White rabbits, six weeks; format: in vivo, rabbit
Experimental: as §4, §5

VCAM-1 [13] = details: U.S. Pat. No. 5,380,747; cited from earlier work
VCAM-1 [14] = details: PCT/US95/05880; cited from earlier work
NF-kB [15] = details: diverse signals; cited from earlier work
[16] = cited from earlier work
[17] = tested on: LDL receptor-deficient rabbits; details: Carew et al.; cited from earlier work
[18] = listed as monosuccinic acid ester of probucol
[19] = 0.5 wt/wt (approx. 150 mg/kg/day) in diet, FIG. 8
[20] = oral, 150 mg/kg/day, New Zealand White rabbit

## CC(C)(Sc1cc(C(C)(C)C)c(O)c(C(C)(C)C)c1)Sc1cc(C(C)(C)C)c(OC(=O)CCC(=O)O)c(C(C)(C)C)c1 [MSE, monosuccinic acid ester of probucol]
C57 black mice
  apoB-containing lipoproteins: selectively lowers
  effect on HDL: without affecting HDL
ICAM-1
  ICAM-1 expression as a percentage of ICAM-1 expression induced by TNF alone: only a slight effect on ICAM expression which was not very concentration dependent
[1]; day 29, after 100 mg/kg/day oral for two weeks
  serum cholesterol after termination of dosing: returned to the pretreatment level
[1]; during and after administration, FIG. 12
  lowering of LDL, reversibility: reversible lowering of LDL
[1]
  effect on HDL: without effecting HDL
[1]; monkeys compared with mice
  effect on total cholesterol and LDL, monkeys vs mice: significantly more effective at reducing both cholesterol and LDL in rabbits and monkeys than in mice
[1]; [18]
  effect on HDL: does not affect HDL
[1]; oral, two weeks
  LDL cholesterol: lowers
  total plasma cholesterol: lowers
[2]
  plasma level of MSE as a function of days: remained fairly constant
MCP-1 [3]; HAEC, MSE 10 μM, probucol 50 μM, TNF, 4 h, FIG. 3
  MCP-1 expression: inhibited the expression of MCP-1 to a greater extent than probucol itself
MCP-1 [3]; human aortic endothelial cells
  TNF-induced MCP-1 gene expression: selectively inhibits
VCAM-1 [4]
  VCAM-1 expression as a percentage of VCAM-1 expression induced by TNF alone: inhibits the expression of VCAM-1
VCAM-1 [4]; human aortic endothelial cells
  TNF-induced VCAM-1 gene expression: selectively inhibits
rats; oral, two weeks
  mortality: did not result in any mortality
rats; rat, in vivo, po
  changes in liver morphology or histopathology: not accompanied with changes in liver morphology or histopathology
  hematocrit values: no effect
  serum LDH elevation: not statistically different from the untreated group
  serum SGOT elevation: not statistically different from the untreated group
  serum SGPT elevation: not statistically different from the untreated group
  serum alkaline phosphatase elevation: not statistically different from the untreated group
  serum electrolyte values: no effect
MCP-1 [5]
  LPS-induced gene expression of MCP-1 in lungs: blocks
apoE-knock out mice
  effect on HDL: without affecting HDL
  effect on total cholesterol and LDL: a minimal if any, effect
apoE-knock out mice; [18]
  effect on HDL: does not affect HDL
apoE-knock out mice; oral, two weeks, apoE-knock out mice
  apoB-containing lipoproteins: selectively lowers
bacteria
  mutagenicity: not a mutagen
lipid-fed rabbits
  reduction in lipoprotein fractions (cholesterol): statistically significant reduction in all lipoprotein fractions
[6]
  drug level in plasma, MSE vs probucol: similar
VCAM-1 [7]
  effect on VCAM-1 expression: block the induced expression of the endothelial cell surface adhesion molecule VCAM-1
VCAM-1 [7]; all species tested
  VCAM-1 expression, all species tested: inhibits the expression of VCAM-1 in all species tested
Aortic lesions; oral, 150 mg/kg/day
  atherosclerosis lesion formation: marked inhibition
Aortic lesions; approx. 150 mg/kg/day, FIG. 9
  aortic sudan-4 staining: much less staining
NF-kB [8]
  effect on NF-kB activation: does not affect NF-kB activation
VCAM-1 [9]
  LPS-induced gene expression of VCAM-1 in lungs: blocks
VCAM-1 [10]
  reduction in VCAM-1 expression in aorta sections: more than 75%
VCAM-1 [10]; oral, 150 mg/kg/day
  VCAM-1 expression in aorta: marked inhibition
[11]
  reduction in macrophage accumulation in aorta sections: more than 75%
[11]; oral, 150 mg/kg/day
  macrophage accumulation: marked inhibition
rabbits
  effect on HDL: reduces HDL only to a small extent
rabbits; rabbits compared with mice
  effect on total cholesterol and LDL, rabbits vs mice: significantly more effective at reducing both cholesterol and LDL in rabbits and monkeys than in mice
[12]; [19]
  cholesterol in IDL: lowered more by treatment with AGE-3 than with probucol
  cholesterol in VLDL: lowered more by treatment with AGE-3 than with probucol
  total cholesterol: lowered more by treatment with AGE-3 than with probucol
[12]; [20]
  ApO-B containing cholesterol levels: lowers
  HDL cholesterol levels: lowers
  total plasma cholesterol: lowers

## S=C(S)N1CCCC1 [PDTC, pyrrolidine dithiocarbamate]
VCAM-1 [13]
  expression of VCAM-1 in vascular endothelial cells: can be inhibited
VCAM-1 [14]
  induction of VCAM-1 by polyunsaturated fatty acids and their hydroperoxides: supressed
NF-kB [15]
  activation of NF-kB in vascular endothelial cells: specifically inhibited
NF-kB [8]
  effect on NF-kB activation: does inhibit the activation of NF-kB

## CC(C)(Sc1cc(C(C)(C)C)c(O)c(C(C)(C)C)c1)Sc1cc(C(C)(C)C)c(O)c(C(C)(C)C)c1 [probucol, 4,4'-(isopropylidenedithio) bis(2,6-di-tert-butylphenol), reference compound]
ICAM-1
  ICAM-1 expression as a percentage of ICAM-1 expression induced by TNF alone: no effect on ICAM expression
[16]
  solubility in water: almost insoluble in water
VCAM-1 [4]
  VCAM-1 expression as a percentage of VCAM-1 expression induced by TNF alone: does not have an appreciable effect on VCAM
apoE-knock out mice
  effect on total cholesterol and LDL: a minimal if any, effect
lipid-fed rabbits
  reduction in lipoprotein fractions (cholesterol): only HDL cholesterol
VCAM-1 [7]
  effect on VCAM-1 expression: does not significantly affect VCAM-1 expression
VCAM-1 [10]
  reduction in VCAM-1 expression in aorta sections: less than 25%
[17]
  progression of atherosclerosis: slow the progression of atherosclerosis
[11]
  reduction in macrophage accumulation in aorta sections: less than 25%
rabbits
  effect on HDL: reduces HDL significantly
rabbits; species not restated for probucol
  effect on LDL: reduces LDL only to a small extent
